Experimental data as given in publication PMC3269340, “Pharmacokinetics of memantine in rats and mice” (PLoS Currents, 2012).
Like-named read-outs stand apart in the source and are kept apart here.

Assay: Pharmacokinetics in rats after single iv, po or sc dose (plasma and brain)
Assay type: in vivo, Sprague-Dawley rats
Conditions: for half-life / AUC(0-inf) / Cmax: plasma
Protocol: Sprague Dawley (SD) rats (138 adult males), and C57Bl/6 mice (140 adult males), were obtained (Hilltop Laboratories, Scottsdale, PA); 123 per species were used in the study and the remainder provided blank matrix. Animals were individually identified by tail markings and were acclimated to the study environment for 16-21 days prior to dose administration. Animals were individually housed in suspended wire caging, and were kept on a 12h/12h light/dark cycle except when interrupted for study procedures. Average room temperature was regulated in the range 18 to 29°C, average relative humidity of 30-70%, and an average daily airflow >10 fresh air changes/h. Animals were fed LabDiet^Ò Certified Rodent Diet 5002 Meal food ad libitum, except during fasting prior to dose administration, and had access to water ad libitum.
[…] […] The concentration of memantine for the same dose level administered to mice was 0.2 mg eq./mL, and the dose volume was 5 mL/kg. The concentration of memantine in the 10mg eq./kg po and sc solutions was 5 mg eq./mL and the dose volume was 2 mL/kg for both rats and mice.
Details of the dose administration, body weights, clinical observations, plasma and brain sample collection and preparation are not shown in this report but are available upon request. Blood (for preparation of plasma) and brain samples were collected at 0.08, 0.25, 0.5, 1, 2, 4, 8, and 24h post-dose.
Since all time points were terminal, mean memantine concentrations per time point were used to calculate the composite PK parameters by non-compartmental analysis using WinNonlin program, version 5.2 (Pharsight Corp., Mountain View, California). A model was selected based on the vascular (iv bolus) or extravascular (po or sc) routes of administration. For the iv route, plasma concentration at time zero was back extrapolated from the first two observed post dose plasma concentrations. For the po and sc routes, concentration at time zero was assumed to be zero. Plasma and tissue concentrations below the limit of quantitation were treated as absent samples for the purpose of calculating the mean plasma concentration values or for calculating PK parameters.
The area under the plasma concentration versus time curve (AUC) was calculated using the linear trapezoidal method (linear interpolation). When appropriate, the terminal elimination phase of the PK profile was estimated based on the best fit (r^2) using at least the last three observed concentrations. PK parameters describing the systemic exposure of memantine in plasma and brain were estimated from observed (rather than predicted) plasma/brain concentrations, the dosing regimen, the AUC, and the terminal elimination phase rate constant (kel) for each group. The portion of the AUC from the last measurable concentration to infinity was estimated from the equation Ct/kel, where Ct represents the last measurable concentration. The extrapolated portion of the AUC was used for the determination of AUC0-∞. The percent bioavailability (%F) was calculated by dividing the dose normalized extravascular plasma AUC0-∞ by the dose normalized iv plasma AUC0-∞ times 100. The bioavailability calculations assumed concentrations were in the linear range.
Concentrations of memantine in rat and mouse plasma and brain were determined using an LC-MS/MS assay developed at ABC Laboratories.

[1] = rat brain, po dose increase from 1.22 to 10 mg/kg
[2] = rat plasma, po dose increase from 1.22 to 10 mg/kg

With `CC12CC3CC(C)(C1)CC(N)(C3)C2` [memantine] the half-life (male, Sprague-Dawley, rat, iv, 1 mg/kg, rat, printed under 1 mg/kg (iv), cross-species summary, read-out: t 1/2 (converted)) was 4 h, the AUC(0-inf) (male, Sprague-Dawley, rat, iv, 1.22 mg/kg, rat plasma, IV 1.22 mg eq./kg, read-out: AUC(0-∞)) was 1.64 µM·h and the half-life (male, Sprague-Dawley, rat, iv, 1.22 mg/kg, rat plasma, IV 1.22 mg eq./kg, read-out: Half-life (t½) (converted)) was 1.9 h. For the same molecule, the AUC(0-inf) (male, Sprague-Dawley, rat, po, 1 mg/kg, rat, dose 1 mg/kg, single dose in solution (oral values of Table 1), read-out: AUC inf) was 0.6 µM·h, the Cmax (male, Sprague-Dawley, rat, po, 1 mg/kg, rat, dose 1 mg/kg, single dose in solution, read-out: C max) was 100 nM and the AUC(0-inf) (male, Sprague-Dawley, rat, po, 1.22 mg/kg, rat plasma, PO 1.22 mg eq./kg, read-out: AUC(0-∞)) was 0.594 µM·h. For the same molecule, the half-life (male, Sprague-Dawley, rat, po, 1.22 mg/kg, rat plasma, PO 1.22 mg eq./kg, read-out: Half-life (t½) (converted)) was 2.23 h, the Cmax (male, Sprague-Dawley, rat, po, 1.22 mg/kg, rat plasma, PO 1.22 mg eq./kg, read-out: Observed Cmax) was 109 nM and the AUC(0-inf) (male, Sprague-Dawley, rat, po, 10 mg/kg, rat plasma, PO 10.0 mg eq./kg, read-out: AUC(0-∞)) was 11.4 µM·h. It also gave a half-life (male, Sprague-Dawley, rat, po, 10 mg/kg, rat plasma, PO 10.0 mg eq./kg, read-out: Half-life (t½) (converted)) of 3.92 h, a Cmax (male, Sprague-Dawley, rat, po, 10 mg/kg, rat plasma, PO 10.0 mg eq./kg, read-out: Observed Cmax) of 3700 nM and an AUC(0-inf) (male, Sprague-Dawley, rat, po, 10 mg/kg, rat, dose 10 mg/kg, single dose in solution (oral values of Table 1), read-out: AUC inf) of 11.4 µM·h. For the same molecule, the Cmax (male, Sprague-Dawley, rat, po, 10 mg/kg, rat, dose 10 mg/kg, single dose in solution, read-out: C max) was 3700 nM, the AUC(0-inf) (male, Sprague-Dawley, rat, sc, 1 mg/kg, rat plasma, SC 1.0 mg eq./kg, read-out: AUC(0-∞)) was 1.69 µM·h and the half-life (male, Sprague-Dawley, rat, sc, 1 mg/kg, rat plasma, SC 1.0 mg eq./kg, read-out: Half-life (t½) (converted)) was 1.81 h. For the same molecule, the Cmax (male, Sprague-Dawley, rat, sc, 1 mg/kg, rat plasma, SC 1.0 mg eq./kg, read-out: Observed Cmax) was 985 nM, the AUC(0-inf) (male, Sprague-Dawley, rat, sc, 10 mg/kg, rat plasma, SC 10.0 mg eq./kg, read-out: AUC(0-∞)) was 25.8 µM·h and the half-life (male, Sprague-Dawley, rat, sc, 10 mg/kg, rat plasma, SC 10.0 mg eq./kg, read-out: Half-life (t½) (converted)) was 2.59 h. It also gave a Cmax (male, Sprague-Dawley, rat, sc, 10 mg/kg, rat plasma, SC 10.0 mg eq./kg, read-out: Observed Cmax) of 6190 nM, a Tmax (male, Sprague-Dawley, subcutaneous, rat plasma, po and sc, all dose levels, read-out: Tmax after extravascular administration) of 0.5 to 1 h and a Cmax/Cmin ratios (rat) of over 100. The “total systemic clearance, times higher than GFR” value (rat) was ~ 13 fold, the AUCnorm (rat brain, IV 1.22 mg eq./kg) was 39040 (nM hr/kg) /(kg/mg) and the “Observed CmaxNorm” value (rat brain, IV 1.22 mg eq./kg) was 9003 nM/ (mg/kg). The AUCnorm (rat brain, PO 1.22 mg eq./kg) was 17310 (nM hr/kg) /(kg/mg), the “Observed CmaxNorm” value (rat brain, PO 1.22 mg eq./kg) was 1775 nM/ (mg/kg) and the AUCnorm (rat brain, PO 10.0 mg eq./kg) was 25620 (nM hr/kg) /(kg/mg). The “Observed CmaxNorm” value (rat brain, PO 10.0 mg eq./kg) was 2543 nM/ (mg/kg), the AUCnorm (rat brain, SC 1.0 mg eq./kg) was 52980 (nM hr/kg) /(kg/mg) and the “Observed CmaxNorm” value (rat brain, SC 1.0 mg eq./kg) was 10620 nM/ (mg/kg). For the same molecule, the AUCnorm (rat brain, SC 10.0 mg eq./kg) was 44160 (nM hr/kg) /(kg/mg), the “Observed CmaxNorm” value (rat brain, SC 10.0 mg eq./kg) was 7544 nM/ (mg/kg) and the “AUC0-∞ increase, fold more than dose proportional” value [1] was 1.5 fold. For the same molecule, the “Cmax increase, fold more than dose proportional” value [1] was ~ 1.5 fold, the “Cmax and AUC0-∞ increase relative to dose proportional” value (rat brain, sc dose increase from 1 to 10 mg/kg, slightly less than dose proportional) was 0.7-0.8 fold and the AUCnorm (rat plasma, IV 1.22 mg eq./kg) was 1342 (nM hr/kg) /(kg/mg). The AUCnorm (rat plasma, PO 1.22 mg eq./kg) was 486.9 (nM hr/kg) /(kg/mg), the “Observed CmaxNorm” value (rat plasma, PO 1.22 mg eq./kg) was 89.07 nM/ (mg/kg) and the AUCnorm (rat plasma, PO 10.0 mg eq./kg) was 1139 (nM hr/kg) /(kg/mg). For the same molecule, the “Observed CmaxNorm” value (rat plasma, PO 10.0 mg eq./kg) was 369.6 nM/ (mg/kg), the AUCnorm (rat plasma, SC 1.0 mg eq./kg) was 1686 (nM hr/kg) /(kg/mg) and the “Observed CmaxNorm” value (rat plasma, SC 1.0 mg eq./kg) was 985.0 nM/ (mg/kg). The AUCnorm (rat plasma, SC 10.0 mg eq./kg) was 2581 (nM hr/kg) /(kg/mg), the “Observed CmaxNorm” value (rat plasma, SC 10.0 mg eq./kg) was 618.9 nM/ (mg/kg) and the “AUC0-∞ increase, fold more than dose proportional” value [2] was 2.3 fold. The “Cmax increase, fold more than dose proportional” value [2] was ~ 4 fold, the “AUC0-∞ increase, fold more than dose proportional” value (rat plasma, sc dose increase from 1 to 10 mg/kg) was 1.5 fold and the elimination half-life (rat, all dose routes and levels (plasma; b142 also brain)) was under 4 h. The “C max/ C min ratio” value (rat, dose 10 mg/kg) was 123, the “delay in Tmax for brain compared to plasma” value (rat, same dose level and route) was 0.25 to 1.5 h and the “Contribution of active transport to clearance” value (rodent (rat)) was over 100%. For the same molecule, the “brain elimination half-lives after extravascular administrations” value (summary for rats and mice, rat) was 2.28 – 3.8.
